Source: patent US4159373A, “7-Acyl-3-(sulfonic acid and sulfamoyl substituted tetrazolyl thiomethyl) cephalosporins” (SmithKline Corporation, priority 1978, dated 1979)
≈ marks a conversion by molar mass, not a printed value. Read-outs that look alike come from different tables or passages of the source.

How the values were obtained:
shigella HH 117 = test: MIC in vitro; assay type: cell-based; conditions: HH117; Table 1; shigella HH 117; read-out: MIC in vitro
Procedure: (§1) The compounds of Formula I have exceptional antibacterial activity against both Gram-positive and Gram-negative organisms. Minimum inhibitory concentrations (MIC's) ranged from 0.2 to <200 μg./ml. in in vitro testing.

E. coli SK 12140 = test: MIC in vitro; assay type: cell-based; conditions: Escherichia coli, E. coli SK 12140
Procedure: as §1

E. coli HH 33779 = test: MIC in vitro; assay type: cell-based; conditions: Escherichia coli, HH33779, Table 1; E. coli HH 33779; read-out: MIC in vitro
Procedure: as §1

Proteus morgani 179 = test: MIC in vitro; assay type: cell-based; conditions: Table 1, read-out: MIC in vitro
Procedure: as §1

S. villaluz = test: MIC in vitro; assay type: cell-based; conditions: Table 1
Procedure: as §1

Strep. Faecalis HH 34358 = test: MIC in vitro; assay type: cell-based; conditions: Enterococcus faecalis, Table 1; Strep. Faecalis HH 34358; read-out: MIC in vitro
Procedure: as §1

Salmonella ATCC 12176 = test: MIC in vitro; assay type: cell-based; conditions: Salmonella, ATCC12176, Table 1, read-out: MIC in vitro
Procedure: as §1

S. aureus SK 23390 = test: MIC in vitro; assay type: cell-based; conditions: Staphylococcus aureus, SK23390, Table 1; S. aureus SK 23390; read-out: MIC in vitro
Procedure: as §1

S. aureus HH 127 = test: MIC in vitro; assay type: cell-based; conditions: Staphylococcus aureus, HH127; Table 1; S. aureus HH 127; read-out: MIC in vitro
Procedure: as §1

Kleb. pneumo. SK 4200 = test: MIC in vitro; assay type: cell-based, Kleb. pneumoniae; conditions: Klebsiella pneumoniae, Table 1; Kleb. pneumo. SK 4200; read-out: MIC in vitro
Procedure: as §1

Kleb. pneumo. SK 1200 = test: MIC in vitro; assay type: cell-based, Kleb. pneumoniae; conditions: Klebsiella pneumoniae, read-out: MIC in vitro
Procedure: as §1

Entero. cloacae HH 31254 = test: MIC in vitro; assay type: cell-based; conditions: Enterobacter cloacae, HH31254, Table 1, read-out: MIC in vitro
Kleb. pneumo. 4200 = test: In vivo mouse protection, Kleb. pneumo. 4200; conditions: sc, Table 2, Kleb. pneumo. 4200, s.c., read-out: ED50 in vivo
Serra. marc ATCC 13880 = test: MIC in vitro; assay type: cell-based, Serratia marcescens; conditions: Serratia marcescens, ATCC13880, Table 1; Serra. marc ATCC 13880; read-out: MIC in vitro
Procedure: as §1

[1] = system: Entero. aerog. ATCC 13048; test: MIC in vitro; assay type: cell-based, Enterobacter aerogenes; conditions: Klebsiella aerogenes, ATCC13048, Table 1; Entero. aerog. ATCC 13048; read-out: MIC in vitro
Procedure: as §1

Psuedo. sp. HH 63 = test: MIC in vitro; assay type: cell-based, Pseudo. aeruginosa; conditions: Pseudomonas aeruginosa; Table 1; Psuedo. sp. HH 63; read-out: MIC in vitro
Procedure: as §1

E. coli 12140 = test: In vivo mouse protection, E. coli 12140; conditions: Table 2, E. coli 12140, read-out: ED50 in vivo
[2] = Escherichia coli, 12140, sc, s.c.

SMILES	MIC (shigella HH 117)	MIC (E. coli SK 12140; SK12140, Table 1, read-out: MIC in vitro)	MIC (E. coli HH 33779)	MIC (Proteus morgani 179)	MIC (S. villaluz)	MIC (Strep. Faecalis HH 34358)	MIC (Salmonella ATCC 12176)	MIC (S. aureus SK 23390)	MIC (S. aureus HH 127)	MIC (Kleb. pneumo. SK 4200)	MIC (Kleb. pneumo. SK 1200)	MIC (Entero. cloacae HH 31254)	ED50 (Kleb. pneumo. 4200)	MIC (Serra. marc ATCC 13880)	MIC [1]	MIC (Psuedo. sp. HH 63)	ED50 (E. coli 12140; Escherichia coli, 12140, po, p.o.)	ED50 (E. coli 12140; [2])	MIC (E. coli SK 12140; SK12140, read-out: MIC in vitro, Table 1)	MIC (Kleb. pneumo. SK 1200; Table 1, Kleb. pneumo. SK 1200)
NS(=O)(=O)CCn1nnnc1SCC1=C(C(=O)O)N2C(=O)C(NC(=O)Cc3cccs3)[C@H]2SC1 (some centres unmarked) [VIII, 7-(2-thienylacetamido)-3-[1-(2-sulfamoylethyl)tetrazol-5-ylthiomethyl]-3-cephem-4-carboxylic acid]	0.4 µg/mL (≈ 0.733 µM)	0.8 µg/mL (≈ 1.47 µM)	1.6 µg/mL (≈ 2.93 µM)	> 200 µg/mL	1.6 µg/mL (≈ 2.93 µM)	6.3 µg/mL (≈ 11.5 µM)	0.8 µg/mL (≈ 1.47 µM)	0.1 µg/mL (≈ 0.183 µM)	0.4 µg/mL (≈ 0.733 µM)	1.6 µg/mL (≈ 2.93 µM)	0.4 µg/mL (≈ 0.733 µM)	0.8 µg/mL (≈ 1.47 µM)	2 mg/kg	200 µg/mL (≈ 367 µM)	3.1 µg/mL (≈ 5.68 µM)	> 200 µg/mL	> 50 mg/kg	1.32 mg/kg		
O=C(Cc1cccs1)NC1C(=O)N2C(C(=O)O)=C(CSc3nnnn3CCS(=O)(=O)O)CS[C@H]12 (some centres unmarked) [VI, 7-(2-Thienylacetamido)-3-[1-(2-sulfoethyl)tetrazol-5-ylthiomethyl]-3-cephem-4-carboxylic acid]	3.1 µg/mL (≈ 5.67 µM)		12.5 µg/mL (≈ 22.9 µM)	> 200 µg/mL	3.1 µg/mL (≈ 5.67 µM)	50 µg/mL (≈ 91.5 µM)	0.8 µg/mL (≈ 1.46 µM)	0.8 µg/mL (≈ 1.46 µM)	1.6 µg/mL (≈ 2.93 µM)	1.6 µg/mL (≈ 2.93 µM)		6.3 µg/mL (≈ 11.5 µM)	1.56 mg/kg	> 200 µg/mL	25 µg/mL (≈ 45.7 µM)	> 200 µg/mL		4.4 mg/kg	3.1 µg/mL (≈ 5.67 µM)	0.8 µg/mL (≈ 1.46 µM)
